Test results published in PMC7287031 (Pharmacology Research & Perspectives, 2020).
Where two headings read alike, the source gives them in different places. Blank lines part the entries; values can stand above or below the molecule they belong to.

Legend:
[1] = system: CYP enzymes that metabolise ribociclib in HLM (total metabolism; CYP-selective chemical inhibitors); test: Inhibition of [3H] ribociclib total metabolism in HLM by CYP- and FMO-selective inhibitors; type: in vitro ADME; settings: both, human, human liver microsomes, pH 7.4, probe [3H] ribociclib
CYP1A2 = settings: ref literature search, read-out: Reported Ki or IC50 values, median (and range); cited from earlier work
CYP3A = settings: cited from earlier work
[2] = Human ADME study: quantitative metabolite profiling in urine and feces; type: in vivo; settings: pooled excreta n=6, from metabolite patterns (radio profiling)
Procedure: Average pools across the six subjects were also created by combining equal percentages (of total urine and feces excreted over the time interval) of the individual subject pools. Urine pools were analyzed directly for metabolite profiling (column recovery of a representative sample was measured), whereas feces pools were subjected to extraction. Specifically, to each aliquot of feces homogenate, two volumes of acetonitrile were added. After centrifugation, the pellet was washed further with an additional two volumes of acetonitrile. […] All washes were combined, evaporated under nitrogen, and reconstituted with a solution of 15‐mM ammonium formate (pH 3.5). This feces extract reconstitute was analyzed for metabolite profiling. Combined extraction and reconstitution (overall recovery) and column recovery were measured. […] The HPLC column used was a Phenomenex Kinetex, C18, 250 × 4.6 mm, equipped with a pre‐column of the same type (2.1 × 4.6 mm), which was placed in a column oven at 40°C. […] The HPLC gradient was as follows: initial conditions were 5% mobile phase B for 1 minute, then increased to 20% at 10 minutes post injection where it was held (isocratic) up to 20 minutes. […] The post column flow was directed to the fraction collector operated in a time‐slice mode and containing 96‐well Lumaplates (Perkin Elmer). The plates were dried at room temperature and the radioactivity was measured using a microplate scintillation counter model TopCount NXT (Perkin Elmer) instrument (up to 3 × 100‐minute counting time). […] Metabolites were identified during the same injections using data generated by the high‐resolution mass spectrometer. The molecular ions and key fragments of each drug‐related component were determined. Key fragments for each metabolite were derived from their product ion mass spectra and were used to determine the metabolite structures. Where possible, structural assignments were supported by exact mass measurement, comparison with synthetic standards and/or Hydrogen/Deuterium (H/D) exchange LC‐MS(/MS).

[3] = Dog ADME study: excretion, mass balance, metabolite profiling with radiolabeled ribociclib; type: in vivo
Procedure: (§1) ADME studies (including QWBA in pigmented and non‐pigmented rats) using radiolabeled ribociclib were conducted in rat and dog. Relevant institutional and national guides for the care and use of laboratory animals were followed.
(§2) Metabolite profiling was conducted on plasma, urine, bile, and feces samples in the rat and dog ADME studies, and further metabolite profiling on plasma and milk was conducted in a dedicated rat milk excretion study.
(§3) Plasma samples obtained from these studies were extracted with equal volumes of acetonitrile. Additional extractions of the protein pellet with acetonitrile and/or acetone were conducted as needed to maximize radioactivity recovery. Feces samples were initially extracted with two to four volumes of acetonitrile. Additional extractions of the pellet following centrifugation and removal of supernatant were conducted with acetonitrile and/or acetone as needed to maximize radioactivity recovery. Urine and bile samples were analyzed directly following centrifugation. Radioactivity recoveries following the centrifugation step were measured by LSC. Milk samples were extracted with two volumes of acetonitrile, following centrifugation and removal of supernatant, the pellets were re‐suspended in 100 µL of water and re‐extracted with 200 µL acetonitrile.
(§4) Metabolite profiling in the ADME studies was conducted using liquid chromatography‐mass spectrometry. Radioactivity profiles were generated by diversion of the majority of the post‐column flow into 96‐well yttrium silicate scintillation‐coated plates (Deepwell Lumaplates; Perkin Elmer Life and Analytical Sciences Inc), by means of Gilson FC204 fraction collectors (Gilson). Metabolites were identified by mass spectrometry (Waters QTOF operating under MassLynx 4.1) and, where feasible, by comparison with authentic reference standards.

[4] = Rat ADME study: excretion, mass balance, metabolite profiling with radiolabeled ribociclib; type: in vivo; settings: rat
Procedure: as §1, §2, §3, §4

[5] = Human ADME study: quantitative metabolite profiling in plasma; type: in vivo
Procedure: A plasma pool across the six healthy volunteers included in the study was prepared at the time points of 1 hour, 3 hours, 24 hours, and 48 hours post dose. For each time point, an equal volume of plasma was taken from each subject and combined. Plasma pool samples were processed by protein precipitation with acetonitrile. The protein pellet that resulted from precipitation with acetonitrile was washed further with additional aliquots of acetonitrile. All acetonitrile washes were combined and evaporated under nitrogen. For the 3‐ and 24‐hour plasma pools, the extraction procedure was slightly modified, including precipitation of the plasma proteins by addition of a 1:1 mixture of acetonitrile:methanol, followed by washing of the protein pellet with the same solvent mixture. All extracts were reconstituted with a solution of 15‐mM ammonium formate and acetonitrile (95:5 v/v). Extraction and reconstitution recoveries were measured in all four plasma samples in order to calculate and overall recovery. Quantitative metabolite profiling in plasma was accomplished using a Shimadzu Prominence high‐performance liquid chromatography (HPLC) system (Shimadzu, Columbia, MD, USA), coupled with fraction collection and analysis of total radioactivity in individual fractions using AMS (as described above). A second injection of each sample, conducted immediately after the first, was used to provide HPLC fractions for metabolite identification. The fractions identified as containing radioactivity from the AMS analysis were analyzed by HPLC coupled with high‐resolution mass spectrometry to identify the metabolites. The HPLC‐MS/MS methodology used is described below.

[6] = Human ADME study: PK of ribociclib and LEQ803 in plasma and urine (validated bioanalytical assay); type: in vivo; settings: human plasma, bioanalytical assay, single oral 600 mg, N=6; for AUC(0-inf) / AUC(0-t) / Cmax / half-life: human, plasma, po, 600 mg
Procedure: Subjects continued to fast for 4 hours after drug administration.
Plasma aliquots at each time point were subjected to protein precipitation with three volumes of acetonitrile containing 0.1% (v:v) formic acid, followed by dilution and analysis by liquid chromatography‐tandem mass spectrometry in selected reaction monitor‐positive ion mode using heated electrospray ionization as the ionization technique. For urine aliquots, six volumes of acetonitrile containing 0.1% (v:v) formic acid were added, followed by dilution and analysis in the same way as for plasma. Components were separated using a YMC‐Triart C18 (2.0 x 30 mm, 1.9 µm) column (YMC Co. Ltd.). […] Mobile phase A was 0.1% formic acid in H2O while mobile phase B was 0.1% formic acid in ACN:Isopropanol 8:2 v:v.

[7] = Contribution of metabolites to total pharmacological activity in human; settings: considering in vitro measurements and in vivo exposure
FMO = molecular target: FMO; parameters: method as in Zhou et al (2002); settings: ref Zhou et al (2002), read-out: Reported Ki or IC50 values; cited from earlier work
CYP2D6 = settings: ref literature search, read-out: Reported Ki or IC50 values, median (and range); cited from earlier work
CYP2C9 = settings: cited from earlier work
[8] = substrate: CN(C)C(=O)c1cc2cnc(Nc3ccc(N4CCNCC4)cn3)nc2n1C1CCCC1; test: Enzyme kinetics with recombinant CYP2J2 and scaling to HLM; type: in vitro ADME, human; settings: other: recombinant CYP2J2; 37.0 °C
Procedure: In vitro incubations were carried out in 100‐mM potassium phosphate buffer (pH 7.4) and 5‐mM MgCl2 with a total volume of 200 µL. Substrate and either human liver microsomes (HLM, BD Biosciences, mixed gender pool of n = 50) or recombinant human enzymes (BD Biosciences) were added and pre‐incubated for 3 minutes at 37°C. The reaction was started by addition of a fresh solution of NADPH (1 mmol/L final concentration). The samples were incubated at 37°C with agitation of 500 rpm. For incubations with CYP2A6, CYP2C9, CYP2C18, and CYP4A11, the phosphate buffer was replaced by TRIS buffer (100 mmol/L, pH 7.4) and for flavin‐containing monooxygenases (FMOs), a glycine buffer (50 mM, pH 9.5) was used.
The enzymatic reaction was stopped and the protein was precipitated by addition of an equal volume of methanol. After 30 min at −80°C, the samples were centrifuged at 30'000 x g for 15 min. The supernatant was withdrawn. Aliquots were analyzed by LSC and the supernatant was diluted with water to obtain a final solution containing less than 20% of the organic solvent. For samples of low substrate concentration, supernatants were evaporated to dryness under nitrogen, then re‐suspended in water containing less than 20% of methanol. Samples were analyzed by HPLC combined with radiodetection. […]

Molecule: Cc1nc2c([nH]1)c(=O)n(C)c(=O)n2Cc1ccco1 [Furafylline]
IC50 [1]: > 10000 nM

Excretion (% of dose), Feces [2]: 13.9 % of dose
Excretion (% of dose), Urine [2]: 3.74 % of dose
Excretion (% of dose), Feces ([2]; listed as M4): approximately 13.9 % of dose
Excretion (% of dose), Urine ([2]; listed as M4): approximately 3.74 % of dose
metabolite as % of plasma exposure to ribociclib [3]: 3%
metabolite as % of plasma exposure to ribociclib [4]: 38%
ratio of AUC0-48 by validated bioanalytical assay to AUC0-48 from metabolite patterns ([5]; human plasma): 0.813
AUC0-48h, % of total [14C]-AUC0-48 ([5]; human plasma pools n=6, from metabolite patterns): 8.60%
metabolite exposure as % of ribociclib exposure ([5]; human plasma, AUC0-48): 19.8%
tlast, median (range) [6]: 252 (240‐312) h
Tmax ([6]; read-out: tmax, median (range)): 2.5 h
AUC(0-inf) ([6]; read-out: AUCinf, arithmetic mean (CV %)): 2320 ng·h/mL
AUC(0-inf) ([6]; read-out: AUCinf, median): 2390 ng·h/mL
AUC(0-t) ([6]; read-out: AUClast, arithmetic mean (CV %)): 2160 ng·h/mL
AUC(0-t) ([6]; read-out: AUClast, median): 2240 ng·h/mL
Cmax ([6]; read-out: Cmax, arithmetic mean (CV %)): 67.6 ng/mL
Cmax ([6]; read-out: Cmax, median): 59 ng/mL
half-life ([6]; read-out: t½, arithmetic mean (CV %) (converted)): 91.8 h
half-life ([6]; read-out: t½, median (converted)): 78.2 h
Molecule: CNC(=O)c1cc2cnc(Nc3ccc(N4CCNCC4)cn3)nc2n1C1CCCC1 [M4 (LEQ803)]
contribution to total pharmacological activity in human [7]: not to have a relevant contribution to total pharmacological activity

Molecule: Cn1cc[nH]c1=S [Methimazole]
Ki (FMO): 61000 nM

IC50 [1]: > 5000 nM
Molecule: Nc1ccc(S(=O)(=O)Nc2ccnn2-c2ccccc2)cc1 [Sulfaphenazole]

B1: CYP2J2 (Homo sapiens) (protein)
chain: MLAAMGSLAAALWAVVHPRTLLLGTVAFLLAADFLKRRRPKNYPPGPWRLPFLGNFFLVDFEQSHLEVQLFVKKYGNLFSLELGDISAVLITGLPLIKEALIHMDQNFGNRPVTPMREHIFKKNGLIMSSGQAWKEQRRFTLTALRNFGLGKKSLEERIQEEAQHLTEAIKEENGQPFDPHFKINNAVSNIICSITFGERFEYQDSWFQQLLKLLDEVTYLEASKTCQLYNVFPWIMKFLPGPHQTLFSNWKKLKLFVSHMIDKHRKDWNPAETRDFIDAYLKEMSKHTGNPTSSFHEENLICSTLDLFFAGTETTSTTLRWALLYMALYPEIQEKVQAEIDRVIGQGQQPSTAARESMPYTNAVIHEVQRMGNIIPLNVPREVTVDTTLAGYHLPKGTMILTNLTALHRDPTEWATPDTFNPDHFLENGQFKKREAFMPFSIGKRACLGEQLARTELFIFFTSLMQKFTFRPPNNEKLSLKFRMGITISPVSHRLCAVPQV
notes: purchased BD Biosciences
Km [8]: 11.8 µM
